Data set [1] has as its target Signal transducer and activator of transcription 6 (Homo sapiens) (UniProt P42226). In words: Inhibition of human STAT6 expressed in BEAS2B cells assessed as IL4/TNFalpha-induced eotaxin-3 secretion at 10 uM after 24 hrs by ELISA.
Data set [2] addresses Tyrosine-protein kinase JAK2 (Homo sapiens) (UniProt O60674). In words: Inhibition of JAK2 up to 10 uM after 30 mins by colorimetric ELISA.
In data set [3] the target is T1, Signal transducer and activator of transcription 6 (Homo sapiens) (UniProt P42226).
T1 sequence (whole entry): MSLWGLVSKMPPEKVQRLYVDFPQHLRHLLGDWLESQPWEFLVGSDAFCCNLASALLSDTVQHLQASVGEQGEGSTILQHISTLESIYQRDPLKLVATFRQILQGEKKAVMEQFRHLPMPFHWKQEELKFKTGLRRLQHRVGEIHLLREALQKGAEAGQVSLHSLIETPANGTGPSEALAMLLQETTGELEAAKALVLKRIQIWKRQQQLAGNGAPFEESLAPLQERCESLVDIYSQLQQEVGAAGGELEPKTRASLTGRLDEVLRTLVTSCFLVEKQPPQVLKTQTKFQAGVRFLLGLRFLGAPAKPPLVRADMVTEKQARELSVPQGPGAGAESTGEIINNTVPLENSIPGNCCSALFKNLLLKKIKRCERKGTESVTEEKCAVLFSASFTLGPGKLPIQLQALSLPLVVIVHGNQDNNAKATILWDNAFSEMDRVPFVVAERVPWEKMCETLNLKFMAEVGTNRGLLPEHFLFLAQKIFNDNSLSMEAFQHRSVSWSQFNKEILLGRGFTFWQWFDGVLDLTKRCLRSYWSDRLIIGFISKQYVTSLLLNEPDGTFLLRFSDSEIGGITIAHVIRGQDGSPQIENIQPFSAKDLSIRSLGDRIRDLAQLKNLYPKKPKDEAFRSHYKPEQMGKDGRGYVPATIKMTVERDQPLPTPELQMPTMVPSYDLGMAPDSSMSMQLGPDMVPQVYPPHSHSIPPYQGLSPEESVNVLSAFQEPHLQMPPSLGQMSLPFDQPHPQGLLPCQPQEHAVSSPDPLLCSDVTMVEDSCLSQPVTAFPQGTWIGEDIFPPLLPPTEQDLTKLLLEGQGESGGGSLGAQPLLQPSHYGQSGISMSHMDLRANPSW
In words: Inhibition of IL-4-induced human STAT6 tyrosine phosphorylation expressed in 293-EBNA cells at 10 uM incubated for 1 hr prior to IL-4-induction measured after 6 hrs by Western blot analysis. The format is cell-based.

The nature of data set [4]: Cytotoxicity against human 293-EBNA cells assessed as effect on luciferase activity at 10 uM after 1 hr by Renilla reniformis luciferase reporter gene assay. It is filed as cell-based.
In data set [5] the target is T1, Signal transducer and activator of transcription 6 (Homo sapiens). In words: Inhibition of human STAT6 expressed in 293-EBNA cells assessed as inhibition of IL4-induced STAT6 transcriptional activation at 10 uM after 1 hr by Photinus pylaris luciferase reporter gene assay. It is filed as cell-based.
Data set [6] has the same target. Briefly: Inhibition of human STAT6 expressed in 293-EBNA cells assessed as inhibition of IL4-induced STAT6 transcriptional activation at 10 uM after 1 hr by Renilla reniformis luciferase reporter gene assay. The format is cell-based.
Data set [7] deals with T2, Signal transducer and activator of transcription 6 (Homo sapiens, UniProt P42226).
T2 sequence (P42226 whole entry): T1 sequence (whole entry)
Briefly: Binding affinity at human recombinant STAT6 by SPR analysis.

Data set [8] addresses Signal transducer and activator of transcription 6 (Homo sapiens) (UniProt P42226). In words: Inhibition of human STAT6 expressed in BEAS2B cells assessed as inhibition of IL4-induced STAT6 transcriptional activation.
The target of data set [9] is T2, Signal transducer and activator of transcription 6. Briefly: Inhibition of human STAT6 expressed in 293-EBNA cells assessed as inhibition of IL4-induced STAT6 transcriptional activation after 1 hr by Photinus pylaris luciferase reporter gene assay. The format is cell-based.
In data set [10] the target is T1, Signal transducer and activator of transcription 6 (Homo sapiens). Briefly: Inhibition of human N-terminal HA/myc tagged STAT6 expressed in 293-EBNA cells assessed as inhibition of IL-4-induced STAT6 inactive dimer-tyrosine phosphorylation after 1 hr by immunoblot analysis. It is filed as cell-based.
Data set [11] has as its target Signal transducer and activator of transcription 6 (Homo sapiens) (UniProt P42226). In words: Inhibition of human STAT6 expressed in BEAS2B cells assessed as […]/TNFalpha-induced eotaxin-3 secretion in presence of TNFalpha at 10 uM after 24 hrs by ELISA.
Data set [12] addresses T1, Signal transducer and activator of transcription 6 (Homo sapiens). Briefly: Inhibition of human N-terminal HA/myc tagged STAT6 expressed in 293-EBNA cells assessed as effect on STAT6 dimer configuration after 1 hr by immunoblot analysis. The format is cell-based.
Data set [13] is described as follows: Cytotoxicity against human 293-EBNA cells assessed as effect on luciferase activity at 10 uM after 1 hr by Photinus reniformis luciferase reporter gene assay. The format is cell-based.
Data set [14] has as its target Signal transducer and activator of transcription 6 (Homo sapiens) (UniProt P42226). Briefly: Inhibition of human STAT6 expressed in BEAS2B cells assessed as […]-induced eotaxin-3 secretion at 10 uM after 24 hrs by ELISA.
Data set [15] shares this target. Briefly: Inhibition of human STAT6 expressed in BEAS2B cells assessed as IL4-induced eotaxin-3 secretion at 10 uM after 24 hrs by ELISA.
Data set [16] deals with T1, Signal transducer and activator of transcription 6 (Homo sapiens). In words: Inhibition of interaction of human recombinant STAT6 with tyrosine phosphorylated IL-4Ralpha peptide at 20 uM after 1 hr by ELISA.
For data set [17], the target named is Signal transducer and activator of transcription 6 (Homo sapiens) (UniProt P42226). Briefly: Inhibition of human STAT6 expressed in BEAS2B cells assessed as IL4-induced eotaxin-3 secretion after 24 hrs by ELISA.

Molecules are shown by their SMILES. Active and inactive are the calls of the source. The calls are words filed in the database; no cut-off is given here.

Tyrosine-protein kinase JAK2 (Homo sapiens), sequence (O60674 whole entry): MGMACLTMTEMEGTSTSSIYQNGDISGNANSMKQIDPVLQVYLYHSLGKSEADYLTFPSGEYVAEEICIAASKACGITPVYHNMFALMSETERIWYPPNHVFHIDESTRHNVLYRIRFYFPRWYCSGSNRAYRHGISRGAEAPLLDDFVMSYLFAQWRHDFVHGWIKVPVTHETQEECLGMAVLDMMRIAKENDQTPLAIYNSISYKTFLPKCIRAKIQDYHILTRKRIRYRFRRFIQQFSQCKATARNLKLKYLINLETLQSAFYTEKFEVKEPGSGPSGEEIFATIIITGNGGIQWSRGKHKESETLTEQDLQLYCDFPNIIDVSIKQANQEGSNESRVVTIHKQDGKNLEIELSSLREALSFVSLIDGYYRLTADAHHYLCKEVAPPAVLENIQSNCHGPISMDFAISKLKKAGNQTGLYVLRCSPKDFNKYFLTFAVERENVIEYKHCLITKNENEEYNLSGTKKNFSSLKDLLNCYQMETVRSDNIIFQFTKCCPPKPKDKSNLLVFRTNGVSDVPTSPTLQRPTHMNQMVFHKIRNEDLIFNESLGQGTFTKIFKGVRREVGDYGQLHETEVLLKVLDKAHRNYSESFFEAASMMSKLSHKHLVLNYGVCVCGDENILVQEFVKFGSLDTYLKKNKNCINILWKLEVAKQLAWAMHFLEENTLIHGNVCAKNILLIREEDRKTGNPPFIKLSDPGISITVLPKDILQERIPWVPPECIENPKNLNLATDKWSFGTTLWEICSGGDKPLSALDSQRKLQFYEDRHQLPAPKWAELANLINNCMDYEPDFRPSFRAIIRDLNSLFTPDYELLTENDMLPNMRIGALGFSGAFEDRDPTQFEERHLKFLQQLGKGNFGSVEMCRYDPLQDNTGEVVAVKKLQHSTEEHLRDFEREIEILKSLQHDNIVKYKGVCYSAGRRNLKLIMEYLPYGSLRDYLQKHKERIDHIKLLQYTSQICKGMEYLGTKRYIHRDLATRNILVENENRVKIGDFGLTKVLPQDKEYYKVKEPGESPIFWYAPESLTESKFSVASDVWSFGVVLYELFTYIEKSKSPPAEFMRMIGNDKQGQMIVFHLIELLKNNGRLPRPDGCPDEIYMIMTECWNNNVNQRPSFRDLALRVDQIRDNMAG

Regarding `CC(C)[C@@H](C)NC(=O)c1cc(-c2cc3ccccc3n2C)cc(C(=O)NCCc2ccccn2)n1`, the inhibition result in [1], in [3], in data set [5], in data set [6], in data set [8] and in data set [10] was “Active” throughout. In addition, the inhibition result in [11], in [14] and in data set [15] was “Active” throughout. Further, the inhibition result in data set [2], in [12] and in data set [16] was “inactive” each time. The Activity result in data set [4] and in data set [13] was “Non-toxic” in each case. In data set [7], the Kd stood at 656 nM. Besides, the values for the IC50 in [9] and in data set [17] were 2700 nM and 2740 nM, respectively.
As to `CN(CCc1ccccc1)C(=O)c1csc2c1CCC/C2=N/O`, the inhibition entry in [3], in data set [10], in data set [12] and in data set [16] was “inactive” throughout. Besides, the Kd in [7] stood at 74000 nM.
With `CC(C)[C@@H](C)NC(=O)c1cc(-c2cc3ccccc3s2)cc(C(=O)NCCc2ccccn2)n1`, the inhibition entry in [2], in data set [12] and in [16] was “inactive” throughout. Also, the inhibition entry in [3], in data set [5], in data set [6] and in [10] was “Active” in each case. Besides, the Activity entry in data set [4] and in [13] was “Non-toxic” in each case. Besides, in data set [7], the Kd is 701 nM. Moreover, the IC50 in data set [9] was determined as 3200 nM.

The values above are taken from ChEMBL document CHEMBL2203017, “STAT6 phosphorylation inhibitors block eotaxin-3 secretion in bronchial epithelial cells” (Bioorg Med Chem, 2012).
